# Experimental data from patent publication US20230065562A1, “DUAL CONTROLS FOR THERAPEUTIC CELL ACTIVATION OR ELIMINATION” (Bellicum Pharmaceuticals, Inc., priority 2015, published 2023).
# Substitutions are numbered along the chain they refer to. Names may count otherwise. “Also recorded” adds a separate entry of the source. Where a SMILES comes first, the peptide text is derived from it. Where no end group is shown, it is not given here. The star is where a group is joined. Cbz = O=C(OCc1ccccc1)*; CH2F = FC*
# B1: N405Q: modified iCasp9, N405Q (SEQ ID NO: 26) (protein)
# chain: GFGDVGALESLRGNADLAYILSMEPCGHCLIINNVNFCRESGLRTRTGSNIDCEKLRRRFSSLHFMVEVKGDLTAKKMVLALLELARQDHGALDCCVVVILSHGCQASHLQFPGAVYGTDGCPVSVEKIVNIFNGTSCPSLGGKPKLFFIQACGGEQKDHGFEVASTSPEDESPGSNPEPDATPFQEGLRTFDQLDAISSLPTPSDIFVSYSTFPGFVSWRDPKSGSWYVETLDDIFEQWAHSEDLQSLLLRVANAVSVKGIYKQMPGCFQFLRKKLFFKTS
# B2: D330A: modified iCasp9, D330A (SEQ ID NO: 24) (protein)
# chain: B1 chain with D196A, Q271N
# B3: F404Y: modified iCasp9, F404Y (protein)
# chain: VDGFGDVGALESLRGNADLAYILSMEPCGHCLIINNVNFCRESGLRTRTGSNIDCEKLRRRFSSLHFMVEVKGDLTAKKMVLALLELARQDHGALDCCVVVILSHGCQASHLQFPGAVYGTDGCPVSVEKIVNIFNGTSCPSLGGKPKLFFIQACGGEQKDHGFEVASTSPEDESPGSNPEPDATPFQEGLRTFDQLDAISSLPTPSDIFVSYSTFPGFVSWRDPKSGSWYVETLDDIFEQWAHSEDLQSLLLRVANAVSVKGIYKQMPGCYNFLRKKLFFKTSASRA
# How the values were obtained:
# [1] = molecular target: FRB-PLF (Homo sapiens, UniProt P42345+P62942, K2095P/T2098L/W2101F); details: cited from earlier work
# Chain of FRB-PLF (P42345 2012-2144 K2095P/T2098L/W2101F): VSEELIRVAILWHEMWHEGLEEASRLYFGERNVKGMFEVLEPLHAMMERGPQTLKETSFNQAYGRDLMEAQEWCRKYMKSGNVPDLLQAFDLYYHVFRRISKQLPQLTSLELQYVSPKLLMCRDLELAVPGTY
# Chain of FRB-PLF (P62942 2-108): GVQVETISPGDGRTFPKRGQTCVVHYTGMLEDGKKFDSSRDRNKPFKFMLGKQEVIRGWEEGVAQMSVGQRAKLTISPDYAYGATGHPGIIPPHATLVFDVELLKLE
# [2] = molecular target: wt FRB (K2095 T2098 W2101) (Homo sapiens, UniProt P42345+P62942); details: cited from earlier work
# Chain of wt FRB (K2095 T2098 W2101) (P42345 2012-2144 limits assumed): as the sequence (P42345 2012-2144 K2095P/T2098L/W2101F) above, with P84K, L87T, F90W counted along it
# Chain of wt FRB (K2095 T2098 W2101) (P62942 2-108 limits assumed): as the sequence (P62942 2-108) above
# [3] = test system: iCasp9M-transduced EBV-CTLs; assay: CID-induced apoptosis / loss of GFP+ cells in iCasp9M-transduced EBV-CTLs; type: cell-based, human; details: 100 μM for 1 hour prior to adding CID
# Experimental: CID (AP20187; ARIAD Pharmaceuticals) at indicated concentrations was added to transfected 293T cells or transduced CTLs. Adherent and nonadherent cells were harvested and washed with annexin binding buffer (BD Pharmingen, San Jose, Calif.). Cells were stained with annexin-V and 7-amino-actinomycin D (7-AAD) for 15 minutes according to the manufacturer's instructions (BD Pharmingen). Within 1 hour after staining, cells were analyzed by flow cytometry using CellQuest software (Becton Dickinson).
# Inducible iCasp9M proficiency in CTLs was tested by monitoring loss of GFP-expressing cells after administration of CID; 91.3% (range, 89.5%-92.6% in 5 different donors) of GFP^+ cells were eliminated after a single 10-nM dose of CID. […] In all experiments, CTLs that survived CID treatment had low transgene expression with a 70% (range, 55%-82%) reduction in mean fluorescence intensity of GFP after CID. No further elimination of the surviving GFP^+ T cells could be obtained by an antigenic stimulation followed by a second 10-nM dose of CID. Therefore, the non-responding CTLs most likely expressed insufficient iCasp9M for functional activation by CID. To investigate the correlation between low levels of expression and CTL non-response to CID, CTLs were sorted for low, intermediate, and high expression of the linked marker gene GFP and mixed 1:1 with nontransduced CTLs from the same donor to allow for an accurate quantitation of the number of transduced T cells responding to CID-induced apoptosis.
# The number of transduced T cells eliminated increased with the level of GFP transgene expression (see FIGS. 4A, 4B and 4C). To determine the correlation between transgene expression and function of iCasp9M, iCasp9M IRES.GFP-transduced EBV-CTL were selected for low (mean 21), intermediate (mean 80) and high (mean 189) GFP expression. Selected T-cells were incubated overnight with 10 nM CID and subsequently stained with annexin V and 7-AAD. Indicated are the percentages of annexin V+/7-AAD− and annexin V+/7-AAD+ T−. Selected T-cells were mixed 1:1 with non-transduced T-cells and incubated with 10 nM CID following antigenic stimulation. Indicated is the percentage of residual GFP-positive T-cells on day 7.
# For GFPhigh-selected cells, 10 nM CID led to deletion of 99.1% (range, 98.7%-99.4%) of transduced cells. On the day of antigen stimulation, F-Casp9M.I.GFP-transduced CTLs were either untreated or treated with 10 nM CID. Seven days later, the response to CID was measured by flow cytometry for GFP. The percentage of transduced T cells was adjusted to 50% to allow for an accurate measurement of residual GFP^+ cells after CID treatment. The responses to CID in unselected (top row of and GFPhigh-selected CTLs (bottom row of was compared. The percentage of residual GFP^+ cells is indicated.
# After overnight incubation with 10 nM CID, F-Casp9M.I.GFPhigh-transduced T cells had apoptotic characteristics such as cell shrinkage and fragmentation by microscopic evaluation. […] A representative example of 3 separate experiments is shown.
# [4] = test system: transduced T cells (human PBMCs); assay: IL-6 ELISA as indicator of MC activity in transduced T cells; type: cell-based; details: pBP1440, 24 hours
# [5] = molecular target: FRBL (Homo sapiens, UniProt P42345+P62942, T2098L); assay: Rapalog binding to mutant FRB (FRBL/KLW) versus wild-type FRB
# Chain of FRBL (P42345 2012-2144 T2098L limits assumed): as the sequence (P42345 2012-2144 K2095P/T2098L/W2101F) above, with P84K, F90W counted along it
# Chain of FRBL (P62942 2-108 limits assumed): as the sequence (P62942 2-108) above
# [6] = test system: Raji-GFP cells; assay: Raji-GFP coculture with CD19 CAR-T cells (flow cytometry); type: cell-based, human; details: 2 nM, E:T 1:5, seven days
# Experimental: After seven days of incubation the live cells were analyzed for the proportion of GFP labeled tumor cells (left) and for the proportion of total T cells (CD3^+, right) and transduced CAR-T cells (CD34, not shown).
# Raji cells (ATCC) labeled by stable expression of Green Fluorescent Protein (Raji-GFP) are a Burkitt's lymphoma cell line that express CD19 on the cell surface and are a target for an anti-CD19 CAR. 50000 Raji-GFP cells were seeded on a 24 well plate with 10000 CAR-T cells, a 1:5 E:T ratio. Media supernatant was taken at 48 hours for determination of cytokine release by activated CAR-T cells. The degree of tumor killing was determined at 7 days and 14 days by flow cytometry (Galeos, Beckman-Coulter) by the proportion of GFP labeled tumor cells and CD3 labeled T cells.
# [7] = test system: transduced T cells; assay: T cell caspase assay (IncuCyte, caspase 3/7 green reagent); type: cell-based, human
# Experimental: To enable detection of apoptosis using the IncuCyte instrument, 2 μM of IncuCyte™ Kinetic Caspase-3/7 Apoptosis reagent (Essen Bioscience, 4440) were add to each well to reach a total volume of 200 μl. The plates were centrifuged for 5 min at 400×g and placed inside the IncuCyte (Dual Color Model 4459) to monitor green fluorescence every 2-3 hours for a total of 48 hours at 10× objective. Image analysis was performed using the “Tcells_caspreagent_phase_green_10×_MLD” processing definition. The “Total Green Object Integrated Intensity” metric is used to quantify caspase activation. Each condition was performed in duplicates and each well was imaged at 4 different locations.
# To enable detection of apoptosis using the IncuCyte instrument, 2 μM of IncuCyte™ Kinetic Caspase-3/7 Apoptosis reagent (Essen Bioscience, 4440) was added to each well to reach a total volume of 200 μl. The plates were centrifuged for 5 min at 400×g and placed inside the IncuCyte (Dual Color Model 4459) to monitor green fluorescence every 2-3 hours for a total of 48 hours at 10× objective. Image analysis was performed using the “Tcells_caspreagent_phase_green_10×_MLD” processing definition. The “Total Green Object Integrated Intensity” metric and the “Phase Object Confluence (Percent)” were used to quantify caspase activation. Each condition was performed in duplicate and each well was imaged at 4 different locations.
# [8] = test system: NF-κB; assay: NF-κB SeAP reporter assay of inducible MyD88/CD40 activity; type: cell-based
# Experimental: 293T cells were transfected with 1 μg of reporter construct NF-κB SeAP and 4 μg of the iMC+CARζ construct pBP0774 or the MC-rap-CAR construct pBP1440 using the GeneJuice protocol (Novagen). […] After 24 hours of further incubation SeAP activity was determined from cell supernatants.
# HEK 293T cells (1.5×10^5) were seeded on a 100-mm tissue culture dish in 10 mL DMEM4500, supplemented with glutamine, penicillin/streptomycin and 10% fetal calf serum. After 16-30 hours incubation, cells were transfected using Novagen's GeneJuice® protocol. Briefly, for each transfection, 0.5 mL OptiMEM was pipetted into a 1.5-mL microcentrifuge tube and 15 μL GeneJuice reagent added followed by 5 sec. vortexing. Samples were rested 5 minutes to settle the GeneJuice suspension. DNA (5 μg total) was added to each tube and mixed by pipetting up and down four times. Samples were allowed to rest for 5 minutes for GeneJuice-DNA complex formation and the suspension added dropwise to one dish of 293T cells. A typical transfection contains 1 μg NFkB-SEAP (5), 4 μg iMC+CARζ(pBP0774) or 4 μg MC-Rap-CAR (pBP1440) (1).
# 24 hours following transfection (4.1), 293T cells were split to 96-well plates and incubated with dilutions of dimerizing drugs. Briefly, 100 μL media was added to each well of a 96-well flat-bottom plate. Drugs were diluted in tubes to a concentration 4× the top concentration in the gradient to be place on the plate. […] 100 μL from each drug-containing well was then transferred to the adjacent well and the cycle repeated 10 times to produce a serial two-fold step gradient. The last wells were untreated and serve as a control for basal reporter activity. Transfected 293 cells were then trypsinized, washed with complete media, suspended in media and 100 μL aliquoted to each well containing drug (or no drug). Cells were incubated 24 hours.
# 24 hours after drug stimulation, 96-well plates were wrapped to prevent evaporation and incubated at 65° C. for 2 hours to inactivate endogenous and serum phosphatases while the heat-stable SeAP reporter remains (3, 12, 14). 100 μL samples from each well were loaded into individual wells of a 96-well assay plate with black sides. Samples were incubated with 0.5 mM 4-methylumbelliferyl phosphate (4-MUP) in 0.5 M diethanolamine at pH 10.0 for 4 to 16 hours. Phosphatase activity was measured by fluorescence with excitation at 355 nm and emission at 460 nm. Data was transferred to a Microsoft Excel spreadsheet for tabulation and graphed with GraphPad Prism.
# [9] = test system: HPAC PSCA+ tumor cells; assay: T cell anti-tumor assay with HPAC-RFP cells (IncuCyte, ELISA); type: cell-based, human; details: 2 nM, E:T 1:30
# Experimental: PBMCs from donor 920 were activated and co-transduced with GFP-Ffluc and iMC+CARζ-T (189), i9+CARζ+MC (873), or FwtFRBC9/MC.FvFv (1308)-encoding vectors. […] (A & B) Two days post-seeding, culture supernatants were analyzed for IL-2, IL-6, and IFN-γ production by ELISA. […] Numbers of HPAC-RFP and T cell-GFP at the E:T 1:2 ratio was analyzed using the basic analyzer software for the IncuCyte at day 7 (Ci) and day 8 with 0 nM suicide drug (Cii) and 10 nM suicide drug (Ciii). Similar analysis was also performed at the 1:5 E:T ratio (D). (Note: the y-axis in Ci and Di are at log-scale).
# The HPAC PSCA^+ tumor cells were stably labeled with nuclear-localized RFP protein using the NucLight™ Red Lentivirus Reagent (Essen Bioscience, 4625). To set up the coculture, 4000 HPAC-RFP cells were seeded per well of 96-well plates in 100 μl of CTL medium without IL-2 for at least 4 hours to allow tumor cells to adhere. After transduction with the appropriate retrovirus and allowed to rest for at least 7 days in culture, T were seeded according to various E:T ratios to the HPAC-RFP-containing 96-well plates. […] Each plate was set up in duplicates, one plate to monitor with the IncuCyte cell imaging system and one plate for supernatant collection for ELISA assay on day 2. The plates were centrifuged for 5 min at 400×g and placed inside the IncuCyte (Essen Bioscience, Dual Color Model 4459) to monitor red fluorescence (and green fluorescence if T cells were labeled with GFP-Ffluc) every 2-3 hours for a total of 7 days at 10× objective. Image analysis was performed using the “HPAC-RFP_TcellsGFP_10×_MLD” processing definition. On day 7, HPAC-RFP cells were analyzed using the “Red Object Count (1/well)” metric. […] On day 8, Tcell-GFP cells were analyzed using the “Total Green Object Integrated Intensity” metric. Each condition was performed at least in duplicates and each well was imaged at 4 different locations.
# [10] = molecular target: FRB-KTF (Homo sapiens, UniProt P42345+P62942, W2101F); details: cited from earlier work
# Chain of FRB-KTF (P42345 2012-2144 W2101F limits assumed): as the sequence (P42345 2012-2144 K2095P/T2098L/W2101F) above, with P84K, L87T counted along it
# Chain of FRB-KTF (P62942 2-108 limits assumed): as the sequence (P62942 2-108) above
# [11] = test system: primary T cells; assay: AP1903-dependent cytotoxicity in primary T cells transduced with iCasp9 variants; type: cell-based, human; details: for killing of target T cells within 10 days: AP1903 at day 0 and day 4; for sensitivity to AP1903 in primary T cells: mostly single copy, 24-hour assay
# Experimental: The effects of various caspase polypeptides at mostly single copy in primary T cells was assayed. This may reflect more accurately how these suicide genes will be used therapeutically.
# Primary T cells from healthy donors (n=6) were transduced with retrovirus encoding mutant or wild-type iCasp9 or iCasp9-D330A, and the ΔCD19 cell surface marker. Following transduction, iCasp9-transduced T cells were purified using CD19-microbeads and a magnetic column.
# [12] = test system: HEK293T/16 cells; assay: Secreted alkaline phosphatase (SEAP)-based surrogate killing assay of iCasp9 mutants; type: cell-based, human; details: for basal activity: relative SEAP activity Units: no AP1903; for Basal Activity (relative to wild type/unmodified Caspase-9): SEAP assay without AP1903
molecule,measurement,setting,value
CO[C@@H]1C[C@H](C[C@@H](C)[C@@H]2CC(=O)[C@H](C)/C=C(\C)[C@@H](O)[C@@H](OC)C(=O)[C@H](C)C[C@H](C)/C=C/C=C/C=C(\C)[C@H](OC(C)C)C[C@@H]3CC[C@@H](C)[C@@](O)(O3)C(=O)C(=O)N3CCCC[C@H]3C(=O)O2)CC[C@H]1O [R-Isopropoxyrapamycin],EC50,[1],~8.5 nM
same,EC50,[2],~300 nM
COC(=O)C[C@H](NC(=O)[C@H](C)NC(=O)[C@@H](NC(=O)OCc1ccccc1)C(C)C)C(=O)CF [zVAD-fmk] (Cbz-Val-Ala-Asp(OMe)-CH2F),effect on CID-induced apoptosis,[3],inhibited
C7-isobutyloxyrapamycin,MC activity (secreted IL-6) in MC-rap-T cells,[4],strongly responsive
same,affinity for mutant FRB domain KLW,[5],subnanomolar affinity
same,binds FRBL at concentrations lower than wild-type FRB in mTOR,[5],20 fold
same,CAR-T cells with FwtFRBC9/MC.FvFv,[6],cause cell death
same,activation of apoptosis at high concentrations,[7]; over 100 fold above the level used to activate MC-rap,insufficient to activate apoptosis
same,EC50 / concentration stimulating NF-κB reporter activity via MC-Rap,[8]; MC-rap-CAR construct pBP1440,subnanomolar
same,EC50,"[8]; iRMC (KLW, wild-type FKBP12, MyD88, CD40), read-out: EC50, NF-κB activity via iRMC",< 1 nM
same,tumor cell control by MC-rap containing CAR-T cells,[9],able to control tumor cells as effectively as rimiducid stimulated iMC
Q-LEHD-OPh (QLEHD-OPh),level not toxic to the T cells,[7],> 100 µM
same,concentration efficiently inhibiting caspase-9 activation by iC9 and iRC9,[7]; 20 nM of the respective activating ligands,≤ 4 µM
S-Butanesulfonamidorap [S-Butanesulfonamidorap (AP23050)],EC50,[2],~2.7 nM
same,EC50,[10],> 200 nM
B1,killing of target T cells within 10 days,[11],indistinguishable from wild type
same,sensitivity to AP1903 in primary T cells,[11],less sensitive to AP1903
same,basal activity: relative SEAP activity Units,[12]; 1 μg iCasp9 per million cells,179081 Units
same,basal activity: relative SEAP activity Units,[12]; 2 μg iCasp9 per million cells,175529 Units
same,Basal Activity (relative to wild type/unmodified Caspase-9),[12],lower basal signaling; also recorded: lowered basal activity; also recorded: consistently lower basal activity; also recorded: lower basal activity than D330A; also recorded: very low basal activity; also recorded: Decreased
B2,IC50 of AP1903 in transduced T cells versus wild-type iCasp9,"[11]; AP1903 0-100 nM, 24 hours, 6 donors",significantly lower
same,sensitivity to AP1903 in primary T cells,[11],more sensitive to AP1903 at low titers; also recorded: more sensitive to AP1903 than the wild type
same,basal activity: relative SEAP activity Units,[12]; 1 μg iCasp9 per million cells,148928 Units
same,basal activity: relative SEAP activity Units,[12]; 2 μg iCasp9 per million cells,136863 Units
same,Basal Activity (relative to wild type/unmodified Caspase-9),[12],lowered basal signaling; also recorded: lowered basal activity; also recorded: less basal activity than wild type Caspase-9; also recorded: Decreased
B3,killing of target T cells within 10 days,[11],indistinguishable from wild type
same,Basal Activity (relative to wild type/unmodified Caspase-9),[12],lowered basal activity; also recorded: Decreased
